The subject of assay [1] is isolated rat brain microsomes. The experiment in a line: FeSO4/ascorbic acid-induced lipid peroxidation in isolated rat brain microsomes. To be noted: compound 50 μM with Fe/AA. Format: cell-based. The method, then:
(§1) Two types of buffers were used for the isolation of the rat brain synaptosomes and mitochondria. Buffer A was 5 mM HEPES and 0.32 M Sucrose; Buffer B was 290 mM NaCl, 0.95 mM MgCl2 × 2H2O, 10 mM KCl, 2.4 mM CaCl2 × 2H2O, 2.1 mM NaH2PO4, 44 mM HEPES, 13 mM D-Glucose. For the gradient centrifugation, Percoll reagent was used. A stock solution of 90% Percoll was used to prepare 16%, 10% and 7.5% solutions. All the solutions were used as described below. Immediately after harvesting, synaptosomes, microsomes, and mitochondria were incubated with the exam compounds for 1 h. For assessing the possible neurotoxicity of the most MAOB active compounds, the sub-cellular fractions were incubated with 100 µM of them, and for evaluating their possible neuroprotective and antioxidant activities in different models of neurotoxicity, the sub-cellular fractions were incubated with 50µM of them. The protein measurement of all the sub-cellular fractions was made by the method of Lowry et al., 1951 [57].
The brain was homogenized in 9 vol. of 0.1 M Tris buffer containing 0.1 mM Dithiothreitol, 0.1 mM Phenylmethylsulfonyl fluoride, 0.2 mM EDTA, 1.15% KCl, and 20% (v/v) glycerol at pH 7.4. The homogenate was centrifuged twice at 17,000× g for 30 min. […]
The quantity of the lipid peroxidation product MDA was assessed using the method described by Deby and Goutier.

The target in assay [2] is T1, recombinant human MAO-B (hMAOB) (Homo sapiens, UniProt P27338).
T1 sequence (P27338 1-520): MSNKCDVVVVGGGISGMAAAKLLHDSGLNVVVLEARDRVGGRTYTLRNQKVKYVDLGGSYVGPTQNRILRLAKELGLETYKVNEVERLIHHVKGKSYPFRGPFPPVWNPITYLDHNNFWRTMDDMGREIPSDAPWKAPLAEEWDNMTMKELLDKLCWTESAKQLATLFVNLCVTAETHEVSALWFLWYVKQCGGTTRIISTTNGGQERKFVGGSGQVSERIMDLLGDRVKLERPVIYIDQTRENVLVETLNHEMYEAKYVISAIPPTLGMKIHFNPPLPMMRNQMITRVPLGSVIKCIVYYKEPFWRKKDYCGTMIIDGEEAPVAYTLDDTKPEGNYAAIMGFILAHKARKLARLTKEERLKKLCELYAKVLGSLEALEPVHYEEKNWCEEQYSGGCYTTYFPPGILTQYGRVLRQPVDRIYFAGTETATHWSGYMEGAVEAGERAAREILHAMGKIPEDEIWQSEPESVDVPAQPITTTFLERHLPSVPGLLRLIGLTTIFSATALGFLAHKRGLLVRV
Briefly: biochemical. Format: biochemical. To be noted: 1 µM compound. The method, then: Monoamine oxidase (MAO) activity for both recombinant human MAO-A (hMAOA) and MAO-B (hMAOB) was assessed using a fluorometric assay based on the Amplex® UltraRed reagent. This method, originally reported by Bautista-Aguilera et al. and later adapted with minor changes by Kasabova-Angelova et al., detects hydrogen peroxide or peroxidase activity present in enzymes or biological samples. In this assay, Amplex® Red reacts in a 1:1 molar ratio with hydrogen peroxide in the presence of peroxidase, producing the red-fluorescent compound resorufin. Due to resorufin’s strong extinction coefficient (58,000 ± 5000 cm^−1·M^−1), measurements could be accurately taken using either fluorometric or spectrophotometric methods. […] The control conditions included the use of purified hMAOA or hMAOB in reaction buffer, enzyme solutions with hydrogen peroxide, and buffer alone. All the test compounds were initially prepared at a 1 µM final concentration. These compounds were combined with either hMAOA or hMAOB and loaded into a 96-well plate (with eight replicates per test compound), followed by incubation for 30 min at 37 °C in the dark. Subsequently, a 50 µL detection mix was added to each well. This mix contained Amplex® Red, horseradish peroxidase (HRP), and tyramine substrate, all prepared in a reaction buffer. As this enzymatic reaction proceeded continuously, the fluorescence signal was recorded every 30 min (at 0, 30, 60, 90, 120, and 150 min) to track enzymatic kinetics.

In another assay the target is T2, AChE (Electrophorus electricus, UniProt O42275).
T2 construct: purchased Sigma-Aldrich, Hamburg, Germany
T2 sequence (O42275 24-633): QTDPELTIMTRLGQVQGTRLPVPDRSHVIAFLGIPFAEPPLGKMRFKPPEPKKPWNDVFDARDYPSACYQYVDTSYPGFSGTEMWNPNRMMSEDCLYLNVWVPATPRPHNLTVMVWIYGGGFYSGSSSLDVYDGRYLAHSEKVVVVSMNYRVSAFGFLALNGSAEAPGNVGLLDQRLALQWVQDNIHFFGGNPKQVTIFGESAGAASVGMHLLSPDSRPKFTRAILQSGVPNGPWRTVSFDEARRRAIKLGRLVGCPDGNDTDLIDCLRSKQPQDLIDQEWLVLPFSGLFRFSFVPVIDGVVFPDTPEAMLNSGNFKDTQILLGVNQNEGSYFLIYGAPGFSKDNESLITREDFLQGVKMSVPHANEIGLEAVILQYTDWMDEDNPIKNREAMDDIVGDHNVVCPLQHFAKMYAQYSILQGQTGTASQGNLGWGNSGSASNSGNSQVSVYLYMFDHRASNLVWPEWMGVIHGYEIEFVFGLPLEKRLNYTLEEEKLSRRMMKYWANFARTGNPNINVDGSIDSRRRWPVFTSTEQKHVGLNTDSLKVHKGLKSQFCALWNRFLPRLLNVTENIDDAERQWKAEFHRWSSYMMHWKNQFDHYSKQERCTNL
Briefly: biochemical. Format: biochemical. The conditions noted are these: for inhibition at 200 µM: 200 µM compound; for IC50: means ± SD of three experiments. The method, then:
(§2) AChE and BChE inhibitory activity of the newly synthesized pyrrole-based compounds was measured using the microplate assay described by Ellman et al. with the modifications added by López et al.. The compounds were tested at concentrations between 0.01 and 200 μM. First, they were dissolved in phosphate buffer (PBS) (8 mM K2HPO4, 2.3 mM NaH2PO4, 0.15 M NaCl, pH 7.5), assisted by the addition of no more than 5% MeOH. Then, they were serially diluted with PBS to provide the concentration range needed. Acetylcholinesterase from Electrophorus electricus and butyrylcholinesterase from equine serum (Sigma-Aldrich, Hamburg, Germany) were used with a substrate solution of 5,5′-dithiobis(2-nitrobenzoic acid) (DTNB) with acetylthiocholine iodide (ATCI) or butyrylthiocholine iodide (BTCI), respectively (0.04 M Na2HPO4, 0.2 mM DTNB, 0.24 mM ATCI or BTCI, pH 7.5). A total of 50 μL of AChE or BChE (0.25 U/mL, in PBS) and 50 μL of the tested compound solution were added to the wells. Incubation of the plates was performed at room temperature for 30 min. Then, 100 μL of substrate solution was added to start the enzymatic reaction. […] Enzyme activity was calculated as an inhibition percentage compared to an assay including buffer instead of an inhibitor.

The target of a further assay is T3, BChE (Equus caballus, UniProt P81908).
T3 construct: purchased Sigma-Aldrich, Hamburg, Germany; host or cells: equine serum
T3 sequence (P81908 whole entry): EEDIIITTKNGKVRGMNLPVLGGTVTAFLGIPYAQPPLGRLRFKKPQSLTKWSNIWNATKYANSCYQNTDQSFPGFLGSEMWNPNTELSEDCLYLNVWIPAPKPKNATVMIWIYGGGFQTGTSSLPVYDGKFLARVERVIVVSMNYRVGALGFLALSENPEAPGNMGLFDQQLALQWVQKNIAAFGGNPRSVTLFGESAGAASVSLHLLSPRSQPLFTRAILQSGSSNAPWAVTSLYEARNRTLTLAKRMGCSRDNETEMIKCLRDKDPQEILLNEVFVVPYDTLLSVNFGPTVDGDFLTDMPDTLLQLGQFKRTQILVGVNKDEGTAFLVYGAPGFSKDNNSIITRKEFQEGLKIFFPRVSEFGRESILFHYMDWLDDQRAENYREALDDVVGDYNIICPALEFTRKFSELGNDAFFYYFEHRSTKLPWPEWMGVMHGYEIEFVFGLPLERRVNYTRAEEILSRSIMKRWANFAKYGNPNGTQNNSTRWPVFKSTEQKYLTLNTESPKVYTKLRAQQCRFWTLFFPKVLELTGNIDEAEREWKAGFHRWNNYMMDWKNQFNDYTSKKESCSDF
The experiment in a line: biochemical. To be noted: for inhibition at 200 µM: read-out: Inhibition Activity 200 µM BChE. How it is done: as §2

The test system of assay [3] is isolated rat brain mitochondria. Briefly: t-BuOOH-induced oxidative stress in isolated rat brain mitochondria. Format: cell-based. The conditions noted are these: compound 50 µM with t-BuOOH 75 μM. How it is done: as §1
The mitochondria were prepared by multiple differential fractionation using a Percoll gradient.
The mitochondria were incubated with 75 μM t-BuOOH [57].
After incubation of the mitochondria, 0.3 mL 0.2% TBA and 0.25 mL sulfuric acid (0.05 M) were added to stop the reaction. The tubes were maintained at 100 °C for 30 min. In the next stage, centrifugation of the tubes was carried out at 3500× g for 10 min. Assessment of the total quantity of MDA formed in each sample was measured in the supernatant at 532 nm.
After incubation of mitochondria, 0.04% DTNB was mixed with the mitochondrial suspensions in 0.1 M phosphate buffer (pH 7.4). The absorbance of the yellow product was measured at 412 nm.

Read-outs that look alike come from different tables or passages of the source.

Turning to `Cc1ccc(C)n1C(Cc1cnc[nH]1)C(=O)O` (centres unmarked) [EM-DC-19, 2-(2,5-dimethyl-1H-pyrrol-1-yl)-3-(2H-imidazol-4-yl)propanoic acid], the “decrease of MDA production compared to the toxic agent” value in assay [1] turned out to be 60%; in assay [3] it was 52%. In addition, in assay [2], the inhibition at 1 µM is 50 ± 7.1%. For the same compound, the inhibition at 200 µM came to 73.98 ± 0.59% at AChE and 18.03 ± 0.17% on BChE. Further, the IC50 is 76.2 ± 6.12 µM against AChE and greater than 200 µM against BChE (BChE IC50, means ± SD of three experiments). At AChE (ratio of AChE potencies), the “fold lower AChE inhibition potency compared to EM-DC-2” value was “approximately 100 fold”. In addition, the “preservation of GSH level compared to toxic t-BuOOH” value in assay [3] is 30%.

Turning to `Cc1ccc(C)n1-c1ccc(CC(=O)O)cc1` [EM-DC-27, [4-(2,5-dimethyl-1H-pyrrol-1-yl)phenyl]acetic acid], the “decrease of MDA production compared to the toxic agent” value in assay [1] came to 56%; in assay [3] it was 48%. Also, the inhibition at 1 µM in assay [2] worked out at 50 ± 7.1%. Besides, the inhibition at 200 µM at AChE was 26.5 ± 2.36%; at BChE, 0%. Also, the IC50 was greater than 200 µM on AChE and greater than 200 µM at BChE (means ± SD of three experiments, read-out: BChE IC50). Further, the “preservation of GSH level compared to toxic t-BuOOH” value in assay [3] was 30%.
